Assay results: publication PMC6768983, “Transcriptomic Identification and Biochemical Characterization of HmpA, a Nitric Oxide Dioxygenase, Essential for Pathogenesis of Vibrio vulnificus” (Frontiers in Microbiology, 2019)

Biological target: T1, VvHmpA (Vibrio vulnificus, UniProt Q8DCU2)
T1 construct: gene hmp; reconstituted with heme or FAD
Experiment: FAD fluorometric assay after reconstitution
Type: binding
Conditions: 10 μM protein incubated with 80 μM FAD, 1 h, room temperature; stoichiometry, no affinity constant

T1 sequence (Q8DCU2 whole entry): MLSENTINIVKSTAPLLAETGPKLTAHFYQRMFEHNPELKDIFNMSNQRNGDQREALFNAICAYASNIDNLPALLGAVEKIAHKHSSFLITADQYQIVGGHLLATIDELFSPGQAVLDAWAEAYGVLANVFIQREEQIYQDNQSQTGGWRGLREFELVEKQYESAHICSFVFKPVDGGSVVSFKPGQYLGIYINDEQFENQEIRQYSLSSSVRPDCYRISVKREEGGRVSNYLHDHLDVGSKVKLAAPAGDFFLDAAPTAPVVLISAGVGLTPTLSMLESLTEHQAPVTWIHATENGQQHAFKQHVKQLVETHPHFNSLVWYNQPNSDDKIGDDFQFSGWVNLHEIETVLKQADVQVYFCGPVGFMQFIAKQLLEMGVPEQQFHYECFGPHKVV

`Cc1cc2nc3c(=O)[nH]c(=O)nc-3n(C[C@H](O)[C@H](O)[C@H](O)COP(=O)(O)OP(=O)(O)OC[C@H]3O[C@@H](n4cnc5c(N)ncnc54)[C@H](O)[C@@H]3O)c2cc1C` [FAD] was tested, and the “molecules of FAD per VvHmpA monomer” value was 0.92 ± 0.12 molecules per monomer.
